≈ marks a conversion by molar mass, not a printed value. Read-outs that look alike come from different tables or passages of the source. Bounds are passed on as bounds.

Data set [1] in a line: Rat in vivo PK (PK/PBL cassette). Conditions: for AUC / MRT / half-life / Vd: plasma; for clearance: plasma clearance, read-out: CLp; for Vd: read-out: Vss. An excerpt: 4 Detailed In Vitro and In Vivo Profiles for Selected M1 PAMs ^a | column: Property; 17k; 17g
Data set [2] can be described thus: Plasma protein binding by equilibrium dialysis, rat plasma. To be noted: fraction unbound in rat plasma. The class given is in vitro ADME. The protocol: for 2 seconds (excitation, 480 nm; emission, 530 nm), first add occurred by adding 20 µL of test compound to the cells, and the response was measured for 140 seconds. This is followed by second add; 10 µL (5X) of an EC20 concentration of ACh agonist was added to the cells, and the response of the cells was measured for 125 seconds. Immediately, the third add occurred by adding 12 ul assay buffer or 5X of an EC max concentration of ACh and the response of the cells was measured for 90 seconds. Assay buffer was added to the wells that incubated with compounds followed by EC20 concentration of ACh. […] Calcium fluorescence was recorded as fold over basal fluorescence and raw data were normalized to the maximal response to ACh agonist. Potency (EC50) and maximum response (% ACh Max) for compounds was determined using a four -parameter logist ical equation using GraphPad Prism (La Jolla, CA) or the Dotmatics software platform ( Woburn, MA) : […]
The protein binding of each compound was determined in plasma via equilibrium dialysis employing rapid equilibrium dialysis (RED) plates (ThermoFisher Scientific, Rochester, NY). […]
same manner as the plasma samples in the previously described plasma protein binding assay. Fraction unbound for both plasma and brain samples was determined using Equation 4. […]

The next data set can be described thus: Aqueous solubility. The class given is physicochemical. To be noted: aqueous solution, aqueous buffer.
Data set [3] in a line: Intrinsic clearance in human hepatic microsomes, predicted hepatic clearance. The class given is in vitro ADME. To be noted: predicted hepatic clearance from human hepatic microsomes. The protocol: (§1) A similar approach was used to determine the degree of brain homogenate binding, which employed the same methodology and procedure with the following modifications: 1) a final compound concentration of 1 μM was used, 2) naïve rat brains were homogenized in DPBS (1:3 composition of brain: DPBS, w/w) using a Mini-Bead Beater™ machine in order to obtain brain homogenate, which was then treated in the same manner as the plasma samples in the previously described plasma protein binding assay. […]
(§2) same manner as the plasma samples in the previously described plasma protein binding assay. Fraction unbound for both plasma and brain samples was determined using Equation 4.
(§3) Equation 4 Determination of fraction unbound in plasma.
(§4) The diluted fraction unbound (fu2) in brain was calculated in the same manner by using brain homogenate rather than plasma. Undiluted fraction unbound for the brain was calculated using Equation 5 […]
(§5) Equation 5 Determination of fraction unbound in brain. […]
(§6) Human or rat hepatic microsomes (0.5 mg/mL) and 1 µM test compound were incubated in 100 mM potassium phosphate pH 7.4 buffer with 3 mM MgCl 2 at 37 °C with constant shaking. […] The in vitro half-life (1/2, min, Eq. 1), intrinsic clearance (CL int, mL/min/kg, Eq. 2), and subsequent predicted hepatic clearance (CLhep, mL/min/kg, Eq. 3) was determined employing the following equations: […]

Data set [4] is described as follows: Brain homogenate binding by equilibrium dialysis. Conditions: fraction unbound in rat brain homogenate. The class given is in vitro ADME. Here is the method: as §1, §2, §3, §4, §5, §6
For orientation: In equilibrium dialysis only unbound substance equilibrates across the membrane.

The mark [5] stands for this setting: pH 2.2, read-out: Solubility pH = 2.2.
The mark [6] stands for this setting: pH 6.8, read-out: Solubility pH = 6.8.

On to `Cn1cc(-c2ccc(Cc3cc(C(=O)N[C@H]4CCCC[C@@H]4O)nn3C3CCCC3)cc2)cn1` [17k], for which, in data set [1], the AUC (commonly the area under the concentration-time curve, a measure of exposure) amounted to 74.4 ng·h/mL; the MRT – broadly, the average time that molecules of a dose stay in the body – was 39 min; the half-life (in general, how long it takes for the measured level to halve) is 37.8 min; the clearance worked out at 56 mL/min/kg. The Vd in data set [1] stood at 2.2 L/kg. The Rat fuplasma in data set [2] was 0.03. Also, the solubility (as a rule, the dissolved amount per volume that the medium holds) in “Aqueous solubility” (setting [5]) is 10.8 µM (≈ 4.83 µg/mL). The solubility in the data set “Aqueous solubility” (setting [6]) was < 1.12 µM. Besides, in data set [3], the “Human CLHEP” value is 14.3 mL/min/kg. The Rat fubrain in data set [4] was 0.01.

For `Cn1cc(-c2ccc(Cc3cc(C(=O)N[C@H]4CCOC[C@@H]4O)nn3C3CCCC3)cc2)cn1` [17g], in data set [1], the AUC is 160 ng·h/mL, the MRT came to 76.8 min, the half-life was 72.6 min and the clearance was 20.8 mL/min/kg. Besides, the Vd in data set [1] is 1.59 L/kg. In data set [2], this compound registered a Rat fuplasma of 0.08. For the same compound, the solubility in “Aqueous solubility” (setting [5]) is 84.6 µM (≈ 38 µg/mL). For the same compound, the solubility in “Aqueous solubility” (setting [6]) was 80.7 µM (≈ 36.3 µg/mL). For the same compound, in data set [3], the “Human CLHEP” value is recorded as 6.7 mL/min/kg. This compound also returned a Rat fubrain in data set [4] of 0.08.

Values taken from paper PMC12257413, “Discovery of a Novel sp^3‑Rich M1 Positive Allosteric Modulators (PAMs) Chemotype via Scaffold Hopping” (ACS Medicinal Chemistry Letters, 2025).
